From patent publication US20130345145A1, “ATIP3 AND BIOLOGICALLY ACTIVE FRAGMENTS THEREOF FOR USE IN THE TREATMENT OF CANCER” (INSTITUT NATIONAL DE LA SANTE ET DE LA RECHERCHE MEDICALE …, priority 2011, published 2013) come the findings set out here.

One assay concerns microtubule cytoskeleton. As to the kind of experiment: Immunofluorescence intracellular localization in RPE1 cells. The assay is classed as cell-based, Human. The settings on record: RPE1 cells transfected 24 hrs, data not shown. As to the method:
Immunofluorescence study was performed as example 2. Briefly, Human retinal pigment epithelial (RPE1) cells were transfected for 24 hrs with GFP-D2N, GFP-D2C or GFP-D2CC constructs prior to fixation in ice-cold methanol and incubation with anti-GFP antibodies as described (page 21, lines 1-9).

The subject of the next assay is MCF7 breast cancer cells. As to the kind of experiment: Xcelligence cell proliferation of stable MCF7 clones. Type of assay: cell-based. The settings on record: clone D2CC3, MCF7, FIG. 13. As to the method: Stable clones of MCF7 breast cancer cells expressing moderate levels of GFP-D2N (clones D2N6 and D2N8), GFP-D2C (clone D2C6 and a pool of positive cells) and GFP-D2CC (clone Cl3) have been selected in G418 (1 mg/ml)-containing medium for 4 weeks. Detectable expression of a single polypeptide of expected molecular weight in each case was confirmed by western blotting using anti-GFP antibodies.
Cell proliferation was measured using the Xcelligence technology (Roche). Briefly, cell clones were seeded at 15000 cells/well on 96 wells containing gold electrodes and cellular impedance was monitored in real-time for 40 hours.

Where no end group is shown, it is not given here.

For “D2CC: domain of ATIP3BD, amino-acid positions 817-874 of SEQ ID NO: 1, 58 amino-acids polypeptide, expressed as GFP fusion (SGNAAVIKYEEKPPKPAFQNGSSGSFYLKPLVSRAHVHLMKTPPKGPSRKNLFTALNA; also: expressed as GFP fusion; listed as Homo sapiens)”, the intracellular localization entry in the assay with microtubule cytoskeleton is recorded as “remains diffuse in the cytosol”. For the same substance, in the assay with MCF7 breast cancer cells, the “factor of reduction of proliferation as compared to clone expressing GFP-ATIP3” value was found to be 2.
